Data reported in patent publication US20040116530A1, “Tissue fibrosis inhibitors” (priority 2001, published 2004).
Marks after values point to notes of the source that are not given here.

Columns and labels:
acute hepatitis = details: literature statement; cited from earlier work
[1] = test system: dimethylnitrosamine-induced rat hepatitis models; test: Dimethylnitrosamine-induced rat hepatitis model (hepatic injury and fibrogenesis); format: in vivo; details: for Hepatic Fibrogenesis Score: n=15, histology (azan stain), grade 0-4
Description: Dimethylnitrosamine was frequently administered to rats for 3 weeks to thereby make the rats have irreversible hepatic fibrogenesis. The rats are the test models in this experiment. As the index of hepatic injury and fibrogenesis, the hepatic hydroxyproline was measured in every rat and the liver tissue of each rat was pathologically analyzed. Based on the data, the tissue fibrogenesis-inhibiting effect of the prostaglandin-I2 agonist was evaluated.
10 mg/kg of dimethylnitrosamine was intra-abdominally administered to rats everyday in continuous 3 days a week, over a period of three weeks. 5 days after the final administration of dimethylnitrosamine, the liver was taken out of each rat and its weight was measured. Then, distal potion of the left lobe of the liver was cut out. A part of it was used for histologic analysis^*1) for hepatic fibrogenesis; and another part thereof was used for determination of hepatic hydroxyproline content^*2).
The test compound was orally administered to the rats from the initial dimethylnitrosamine administration to one day before the blood collection from the rats. On the day for dimethylnitrosamine administration, the test compound was administered 12 hours after the dimethylnitrosamine administration; and on the other day, it was administered once a day. The effect of the test compound for curing hepatic injury and fibrogenesis was investigated. The test compound was administered to three groups −1 mg/kg/day administration group (n =15), 3.2 mg/kg/day administration group (n=15), and 10 mg/kg/day administration group (n=15). To the comparative control group, 0 mg/kg administration group (n=15), a solvent was administered in place of the test compound. To confirm the presentation of hepatic fibrogenesis through
dimethylnitrosamine administration, a solvent in place of dimethylnitrosamine was administered to a no-treatment group (n=5).
A distal potion of the left lobe of the liver was fixed in 10% neutral buffer formalin liquid, then stained with azan to prepare an anatomicopathological specimen, on which the degree of fibrogenesis was classified into 5 grades according to the fibrogenesis criteria mentioned below.
Grade 0: No fibrogenesis was found.
Grade 1: Light fibrogenesis was found only locally in and around the portal vein and the central vein.
Grade 2: The fibrogenesis in and around the portal vein and the central vein extended to the lobe.
Grade 4: High-level fibrogenesis was found along with pseudo lobe formation.
A part of the left lobe of the liver that had been frozen at −80° C. was thawed, and 1 ml/500 mg-liver weight of phosphate balanced salt buffer (PBS(−), Dulbecco PBS(−)) was added to it. Then, this was homogenized in Polytron (power control 7, type; PT 10 20 350D, by KINEMATICA) for 1 minute. 4 ml of the thus-homogenized liquid was transferred into a screw cap-equipped centrifuge (by PYREX), and 0.4 ml of 9M HCl was added to it and incubated at120° C. for 8 hours (in DRYING STERILIZER SG-62, by YAMATO). Next, this was further incubated at 4° C. overnight, then neutralized with 6 M KOH and 9M HCl, and then filtered (pore size 0.45 μm, MILLIPORE). 1 ml of chloramine-T^(**) was added to 100 μl of the filtrate or a standard liquid^(*), and left at room temperature for 20 minutes. 1 ml of Ehrich solution^(***) was added to it, and incubated at 65° C. for 40minutes. The reaction was stopped in ice-water, and then the absorbance (OD560) of the reaction liquid was measured with an spectrophotometer UV2100PC (UV-VIS SCANNING SPECTRO PHOTOMETER, by SHIMADZU).

[2] = test system: bleomycin-induced mouse fibrotic lung models; test: Bleomycin-induced lung fibrosis model in mice; format: in vivo
Description: Bleomycin was frequently administered to mice for 10 days to thereby make the mice fibrotic lung. The mice are the test models in this experiment. As the index of lung fibrogenesis, the lung hydroxyproline was measured in every mouse, from which the effect of the prostaglandin-I2 agonist for inhibiting lung fibrogenesis was investigated.
1. 10 mg/kg of bleomycin that had been dissolved in saline to have a concentration of 1 mg/ml was intraperitoneally administered to 8-weeks-old male C57BL/6N mice, once a day, everyday for continuous 10 days. Saline alone was intraperitoneally administered to the negative control group.
2. To the animals of the positive control group and the test compound-administered group, 10 ml/kg of pure water or an aqueous solution of the test compound (32 mg/kg) was orally administered everyday during the test period from the start of the bleomycin administration.
3. 4 weeks after the start of the bleomycin administration, the animals were killed in a mode of euthanasia, the lung was taken out, its wet weight was measured, and the lung was then freesed at −30° C.
4. […]
5. The hydrolyzed sample was neutralized with 6 mols/liter of potassium hydroxide, and the hydroxyproline content of the sample was measured, from which the lung hydroxyproline content was derived. […]

[3] = test compound-administered groups (1, 3.2, 10 mg/kg/day oral) vs dimethylnitrosamine control, figure only

Structure (SMILES): CC#CCC(C)[C@H](O)/C=C/[C@@H]1[C@H]2c3cccc(CCCC(=O)O)c3O[C@H]2C[C@H]1O (mixture of isomers) [beraprost]
- hepatic coagulation necrosis in acute hepatitis (acute hepatitis): inhibits hepatic coagulation necrosis

Structure (SMILES): O=C(O)COc1cccc2c1CC[C@](O)(COC(=O)N(c1ccccc1)c1ccccc1)C2 [Test compound, [[(2R)-5-(carboxymethoxy)-2-hydroxy-1,2,3,4-tetrahydronaphth-2-yl]methyl]N,N-diphenylcarbamate]
- Hepatic Fibrogenesis Score ([1]; 1 mg/kg/day oral, control (0 mg/kg) 2.1 ± 0.2): 1.7 ± 0.2
- Hepatic Fibrogenesis Score ([1]; 3.2 mg/kg/day oral, p < 0.05 vs. 0 mg/kg (2.1 ± 0.2)): 1.3 ± 0.2*
- Hepatic Fibrogenesis Score ([1]; 10 mg/kg/day oral, p < 0.05 vs. 0 mg/kg (2.1 ± 0.2)): 1.3 ± 0.2*
- hepatic fibrogenesis (histology), in words ([1]; test compound-administered groups (1, 3.2, 10 mg/kg/day oral) vs dimethylnitrosamine control): inhibited
- hepatic hydroxyproline content (hepatic collagen content) [1, 3]: decreased
- liver weight reduction [1, 3]: suppressed
- Hydroxyproline Content (lung) ([2]; 32 mg/kg oral daily, 4 weeks after start of bleomycin, n=15, positive control 398.19 ± 15.483, negative control 200.03 ± 6.9707, p < 0.01 vs positive control): 308.37 ± 19.403 ug/lung
- increase in the lung hydroxyproline content caused by bleomycin administration ([2]; oral administration of 32 mg/kg): significantly inhibited
